Measurements published in patent US20260184693A1, “INHIBITORS OF SOLUTE CARRIER FAMILY 6A MEMBER 19 (SLC6A19) AND METHODS OF USE THEREOF” (Maze Therapeutics, Inc., priority 2022, published 2026).

Experiments:
[1] = molecular target: T1, human SLC6A19 (Homo sapiens, UniProt Q695T7); assay: Example B2: 13C6,15N-isoleucine uptake, RapidFire mass spectrometry, in CHO cells with doxycycline-inducible expression of human SLC6A19 and TMEM27; assay type: cell-based; conditions: read-out: SLC6A19_RapidFire Uptake Assay IC50
T1 construct: expressed in transfected cells
T1 sequence (Q695T7 1-634): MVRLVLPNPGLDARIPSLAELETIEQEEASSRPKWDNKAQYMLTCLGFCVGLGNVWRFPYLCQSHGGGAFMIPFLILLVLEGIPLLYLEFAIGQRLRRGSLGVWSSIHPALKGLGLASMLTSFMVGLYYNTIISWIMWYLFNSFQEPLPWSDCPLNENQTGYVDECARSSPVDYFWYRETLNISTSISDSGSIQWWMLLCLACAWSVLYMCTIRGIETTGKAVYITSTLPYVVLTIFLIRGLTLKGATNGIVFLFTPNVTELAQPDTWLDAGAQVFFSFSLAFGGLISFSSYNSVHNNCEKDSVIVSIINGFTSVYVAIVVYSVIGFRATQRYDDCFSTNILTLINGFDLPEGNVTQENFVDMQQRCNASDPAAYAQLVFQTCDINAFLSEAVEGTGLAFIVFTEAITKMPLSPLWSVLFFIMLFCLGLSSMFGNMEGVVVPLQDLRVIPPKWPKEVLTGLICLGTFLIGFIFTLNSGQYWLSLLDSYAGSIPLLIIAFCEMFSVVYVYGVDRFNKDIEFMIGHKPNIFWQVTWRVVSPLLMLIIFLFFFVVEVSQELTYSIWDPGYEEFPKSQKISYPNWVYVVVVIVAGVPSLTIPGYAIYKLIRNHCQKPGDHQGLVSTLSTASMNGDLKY
T1 sequence (Q9HBJ8 15-222 partner): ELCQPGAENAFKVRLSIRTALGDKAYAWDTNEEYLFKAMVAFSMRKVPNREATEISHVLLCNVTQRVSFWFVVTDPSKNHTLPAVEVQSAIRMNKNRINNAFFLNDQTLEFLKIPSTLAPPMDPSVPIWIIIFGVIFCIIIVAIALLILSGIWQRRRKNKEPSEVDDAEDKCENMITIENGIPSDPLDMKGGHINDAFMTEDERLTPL
Method in brief: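 CHO cells were induced with doxycycline to express human SLC6A19 with TMEM27, then pre-incubated 20 min at 37 °C with compounds (2-fold, 10-point, duplicate). Uptake of 13C6,15N-isoleucine (2 mM solution added) over a further 20 min was measured by RapidFire mass spectrometry, using 13C-leucine as internal standard.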

[2] = molecular target: T1, human SLC6A19; assay: Example B-1: L-[3H]leucine uptake, liquid scintillation, in CHO cells with doxycycline-inducible expression of human SLC6A19 and TMEM27; assay type: cell-based; conditions: read-out: SLC6A19_Radioligand Uptake Assay IC50
Experimental: CHO cells with doxycycline-inducible expression of human SLC6A19 and TMEM27 were maintained in T150 cell culture treated flasks using cell culture media, which consisted of 1×DMEM/F12 (Gibco, 11330057), 10% Tet System-Approved FBS (Gibco, A4736401), 100 U/mL Penicillin-Streptomycin (Gibco, 15140122), 1×GlutaMAX™ Supplement (Gibco, 35050061), 1 mM Sodium Pyruvate (Gibco, 11360070), 1.1 mg/mL Sodium Bicarbonate (Gibco, 25080094), 5 μg/mL Blasticidin (InvivoGen, ant-bl-1), 150 μg/mL Hygromycin B Gold (InvivoGen, ant-hg-5), and 500 μg/mL G418 (Sigma-Aldrich, G8168-100 mL). In preparation for the assay, this media was aspirated and 5 mL of TryμLE™ Express Enzyme (Gibco, 12605010) was added to each flask to initiate cell dissociation. The flasks were then incubated (humidified, 37° C. with 5% CO2) for 2 minutes. After incubation, 10 mL of pre-warmed cell culture media was added to each flask. The cell suspension was collected and centrifuged for 5 minutes at 200xg.
The supernatant was aspirated and the pellet was resuspended in 5 mL pre-warmed cell culture media. The resuspended cells were counted using the Countess Cell Counting Chamber (Invitrogen) and the cell concentration of the suspension was readjusted to 1 million live cells/mL using pre-warmed cell culture media. 25 uL/well (25,000 cells/well) of readjusted cell suspension was dispensed into Poly-D-Lysine 384-well white/clear plates (Corning, 354660) using a MultiDrop Combi (Thermo Electron Corp). To induce expression of Human SLC6A19 and TMEM27, 25 uL/well of cell culture media containing 2 μg/mL doxycycline was added to the first 23 columns of each plate resulting in a final concentration of […] doxycycline. 25 μL/well of cell culture media was added to the last column of each plate, to act as negative control wells for Human SLC6A19 and TMEM27 expression. Assay plates were then incubated (humidified, 37° C. with 5% CO2) for 18 hours. After incubation, the media was aspirated and the wells were washed 4 times with pre-warmed HBSS (Sigma-Aldrich, H8264-1L) using an Apricot S-Pipette S2 (Apricot Designs), such that 5 uL/well HBSS was remaining at the end of each wash. […] At this step, the final in-well DMSO concentration in the assay plate is 0.5%. All compounds were plated in a duplicate 8-point dilution series that consisted of 3-fold dilutions. […] Afterwards, 15 uL/well of 3.2 mM hot:cold leucine solution (1:15000 ratio of L-[3,4,5-3H(N)] Leucine (Perkin Elmer, NET460001MC) to L-Leucine (Sigma-Aldrich, L8912-25G) diluted with HBSS (Sigma-Aldrich, H8264-1L)) was added using the Viaflo 384 (Integra), for a final concentration of 1.6 mM hot:cold leucine solution. The plates were then incubated (humidified, 37° C. with 5% CO2) for 20 minutes to conduct the uptake reaction. Immediately after the incubation, the plates were washed 4 times with HBSS (Sigma-Aldrich, H8264-1L) using the ELx405 Microplate Washer (Biotek) to terminate the uptake reaction. After the washes, 50 uL/well Ultima Gold Scintillation Cocktail (Perkin Elmer, 6013326) was added to each well using the Viaflo 384 (Integra). The plates were then incubated (humidified, 37° C. with 5% CO2) on a plate shaker at 200 rpm for 2 hours. After incubation, the plates were removed from the shaker and kept at room temperature for 15 minutes.
Liquid scintillation analysis was performed using the MicroBeta2 Microplate Counter (Perkin Elmer). Activity (%) was derived by normalizing the average of positive control compound treated wells to 0% and the average of DMSO (negative control) wells to 100%. Collaborative Drug Discovery software was used for graphing data.

| Structure (SMILES) | IC50 [1] [nM] | IC50 [2] [nM] |
| --- | --- | --- |
| CN(C(=O)NCc1cc2cc(Cl)ccc2[nH]1)[C@@H]1CCCN(C(=O)Cc2ccon2)C1 [Compound 201, (R)-3-((5-chloro-1H-indol-2-yl)methyl)-1-(1-(2-(isoxazol-3-yl)acetyl)piperidin-3-yl)-1-methylurea] | 227 | 205 |
| CC(=O)N1CCC[C@@H](N(C)C(=O)NCc2cc3[nH]cc(C)c3cc2C)C1 [Compound 233, (R)-1-(1-acetylpiperidin-3-yl)-3-((3,5-dimethyl-1H-indol-6-yl)methyl)-1-methylurea] | 9120 | 15600 |
| CN(C(=O)NCc1cc2cc(Cl)ccc2[nH]1)[C@@H]1CCCN(C(=O)c2ccccc2O)C1 [Compound 196, (R)-3-((5-chloro-1H-indol-2-yl)methyl)-1-(1-(2-hydroxybenzoyl)piperidin-3-yl)-1-methylurea] | 518 | 640 |
| CC(=O)N1CCC[C@@H](N(C)C(=O)NCCc2cc(-c3cc4ccccc4[nH]3)c(Cl)cc2F)C1 [Compound 245, (R)-1-(1-acetylpiperidin-3-yl)-3-(4-chloro-2-fluoro-5-(1H-indol-2-yl)phenethyl)-1-methylurea] | 151 | 459 |
| CN(C(=O)NCc1cc2cc(Cl)ccc2[nH]1)[C@@H]1CCCN(C(=O)Cc2ccno2)C1 [Compound 194, (R)-3-((5-chloro-1H-indol-2-yl)methyl)-1-(1-(2-(isoxazol-5-yl)acetyl)piperidin-3-yl)-1-methylurea] | 242 | 197 |
| CN(C(=O)NCc1cc2cc(Cl)ccc2[nH]1)[C@@H]1CCCN(C(=O)Cc2cocn2)C1 [Compound 202, (R)-3-((5-chloro-1H-indol-2-yl)methyl)-1-methyl-1-(1-(2-(oxazol-4-yl)acetyl)piperidin-3-yl)urea] | 689 | 168 |
| CN(C(=O)NCc1cc2cc(Cl)ccc2[nH]1)[C@@H]1CCCN(C(=O)c2ccc(O)cc2)C1 [Compound 189, (R)-3-((5-chloro-1H-indol-2-yl)methyl)-1-(1-(4-hydroxybenzoyl)piperidin-3-yl)-1-methylurea] | 380 | 264 |
| CC(=O)N1CCC[C@@H](N(C)C(=O)NCCc2ccc(F)c(-c3cc4ccccc4[nH]3)c2)C1 [Compound 244, (R)-1-(1-acetylpiperidin-3-yl)-3-(4-fluoro-3-(1H-indol-2-yl)phenethyl)-1-methylurea] | 7080 | > 10000 |

Second part, the compound after the results:

| IC50 [1] [nM] | IC50 [2] [nM] | Structure (SMILES) |
| --- | --- | --- |
| 396 | 219 | CN(C(=O)NCc1cc2cc(Cl)ccc2[nH]1)[C@@H]1CCCN(C(=O)Cc2ccn(C)n2)C1 [Compound 197, (R)-3-((5-chloro-1H-indol-2-yl)methyl)-1-methyl-1-(1-(2-(1-methyl-1H-pyrazol-3-yl)acetyl)piperidin-3-yl)urea] |
| 45.3 | 230 | CCN(C(=O)NCc1cc2cc(Cl)ccc2[nH]1)[C@@H]1CCCN(C(=O)C2CCC2)C1 [Compound 232, (R)-3-((5-chloro-1H-indol-2-yl)methyl)-1-(1-(cyclobutanecarbonyl)piperidin-3-yl)-1-ethylurea] |
| 4610 | 2410 | CC(=O)N1CCC[C@@H](N(C(=O)NCc2cc3cc(Cl)ccc3[nH]2)C(C)C)C1 [Compound 221, (R)-1-(1-acetylpiperidin-3-yl)-3-((5-chloro-1H-indol-2-yl)methyl)-1-isopropylurea] |
| 62 | 102 | CC(=O)N1CCC[C@@H](N(CC(F)(F)F)C(=O)NCc2cc3cc(Cl)ccc3[nH]2)C1 [Compound 195, (R)-1-(1-acetylpiperidin-3-yl)-3-((5-chloro-1H-indol-2-yl)methyl)-1-(2,2,2-trifluoroethyl)urea] |
| 512 | 350 | Cc1nc(C(=O)N2CCC[C@@H](N(C)C(=O)NCc3cc4cc(Cl)ccc4[nH]3)C2)co1 [Compound 200, (R)-3-((5-chloro-1H-indol-2-yl)methyl)-1-methyl-1-(1-(2-methyloxazole-4-carbonyl)piperidin-3-yl)urea] |
| 49.4 | 145 | CCN(C(=O)NCc1cc2cc(Cl)ccc2[nH]1)[C@@H]1CCCN(C(C)=O)C1 [Compound 163, (R)-1-(1-acetylpiperidin-3-yl)-3-((5-chloro-1H-indol-2-yl)methyl)-1-ethylurea] |
| 80.6 | 150 | CNC(=O)N1CCC[C@@H](N(C)C(=O)NCc2cc3cc(Cl)ccc3[nH]2)C1 [Compound 171, (R)-3-(3-((5-chloro-1H-indol-2-yl)methyl)-1-methylureido)-N-methylpiperidine-1-carboxamide] |
| 63.3 | 193 | CC(=O)N1CCC[C@@H](N(C(=O)NCc2cc3cc(Cl)ccc3[nH]2)C2CC2)C1 [Compound 222, (R)-1-(1-acetylpiperidin-3-yl)-3-((5-chloro-1H-indol-2-yl)methyl)-1-cyclopropylurea] |
| 763 | 256 | CN(C(=O)NCc1cc2cc(Cl)ccc2[nH]1)[C@@H]1CCCN(C(=O)Cc2ncco2)C1 [Compound 204, (R)-3-((5-chloro-1H-indol-2-yl)methyl)-1-methyl-1-(1-(2-(oxazol-2-yl)acetyl)piperidin-3-yl)urea] |
| 405 | 280 | CN(C(=O)NCc1cc2cc(Cl)ccc2[nH]1)[C@@H]1CCCN(C(=O)C2CC(CO)C2)C1 (stereo partly drawn) [Compound 121, (R)-3-((5-chloro-1H-indol-2-yl)methyl)-1-(1-(3-(hydroxymethyl)cyclobutane-1-carbonyl)piperidin-3-yl)-1-methylurea] |
| 836 | 283 | CN(C(=O)NCc1cc2cc(Cl)ccc2[nH]1)[C@@H]1CCCN(C(=O)c2cnoc2)C1 [Compound 238, (R)-3-((5-chloro-1H-indol-2-yl)methyl)-1-(1-(isoxazole-4-carbonyl)piperidin-3-yl)-1-methylurea] |
| 312 | 151 | CN(C(=O)NCc1cc2cc(Cl)ccc2[nH]1)[C@@H]1CCCN(C(=O)c2ccn[nH]2)C1 [Compound 191, (R)-1-(1-(1H-pyrazole-5-carbonyl)piperidin-3-yl)-3-((5-chloro-1H-indol-2-yl)methyl)-1-methylurea] |
